Biological target: recombinant human AMCase (Homo sapiens, UniProt Q9BZP6)
Assay: Human AMCase Activity Assay
Type: biochemical
Details: recombinant hAMCase, 4-methylumbelliferyl B-D-N,N′-diacetylchitobioside substrate, citrate buffer pH 5.2, 37° C., 60 minutes
Experimental: Human AMCase Activity Assay
The assay was run in the 96-well plate format, each reaction in the total volume of 100 μL. 4-Methylumbelliferyl B-D-N,N′-diacetylchitobioside hydrate was used as a substrate for the enzyme. Upon hydrolysis by AMCase, the substrate releases 4-methylumbelliferyl (4MU) that, when ionized in basic pH, emits fluorescence at 460 nm.
Briefly, 40 μL of a substrate was added to each well, followed by 10 μL of compound dilution and 50 μL of hAMCase recombinant enzyme solution. […] The fluorescence of the reaction product was measured in Perkin Elmer Envision fluorescent plate reader at an excitation wavelength of 355 nm.

Chain of recombinant human AMCase (Q9BZP6 22-476): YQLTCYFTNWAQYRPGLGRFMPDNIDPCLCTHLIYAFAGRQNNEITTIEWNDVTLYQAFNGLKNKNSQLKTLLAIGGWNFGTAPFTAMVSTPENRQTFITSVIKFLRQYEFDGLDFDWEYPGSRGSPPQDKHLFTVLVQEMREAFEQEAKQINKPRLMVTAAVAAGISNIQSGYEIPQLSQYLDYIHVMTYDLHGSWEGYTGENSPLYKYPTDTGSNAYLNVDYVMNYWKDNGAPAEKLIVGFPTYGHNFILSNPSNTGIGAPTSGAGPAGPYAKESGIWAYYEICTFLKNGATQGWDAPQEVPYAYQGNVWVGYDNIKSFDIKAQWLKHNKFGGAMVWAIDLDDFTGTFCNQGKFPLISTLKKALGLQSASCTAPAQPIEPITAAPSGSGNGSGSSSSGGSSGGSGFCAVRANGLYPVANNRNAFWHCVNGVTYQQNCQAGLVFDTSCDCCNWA

IC50, 10 to 100 nM:
CS(=O)(=O)Nc1ccccc1CN(CCc1ccc(Cl)cc1)C1CCN(c2nc(N)n[nH]2)CC1 [Example 31, N-(2-(((1-(3-amino-1H-1,2,4-triazol-5-yl)piperidin-4-yl)(4-chlorophenethyl)-amino)methyl)phenyl)methanesulfonamide]
CS(=O)(=O)NC(=O)c1cc(CN(CCc2ccc(Cl)cc2)C2CCN(c3nc(N)n[nH]3)CC2)ccc1Cl [Example 41, 5-(((1-(3-amino-1H-1,2,4-triazol-5-yl)piperidin-4-yl)(4-chlorophenethyl)amino)-methyl)-2-chloro-N-(methylsulfonyl)benzamide]
Cc1ccc(CN(CCc2ccc(Cl)cc2)C2CCN(c3nc(N)n[nH]3)CC2)cc1C(=O)O [Example 6, 5-(((1-(3-amino-1H-1,2,4-triazol-5-yl)piperidin-4-yl)(4-chlorophenethyl)-amino)methyl)-2-methylbenzoic acid]

From patent US9440953B2, “Substituted amino triazoles useful as acidic mammalian chitinase inhibitors” (OncoArendi Therapeutics Sp z o.o., priority 2014, dated 2016)
